Data set [1] deals with T1, JAK3 (Homo sapiens, UniProt P52333).
T1 sequence (P52333 1-1124): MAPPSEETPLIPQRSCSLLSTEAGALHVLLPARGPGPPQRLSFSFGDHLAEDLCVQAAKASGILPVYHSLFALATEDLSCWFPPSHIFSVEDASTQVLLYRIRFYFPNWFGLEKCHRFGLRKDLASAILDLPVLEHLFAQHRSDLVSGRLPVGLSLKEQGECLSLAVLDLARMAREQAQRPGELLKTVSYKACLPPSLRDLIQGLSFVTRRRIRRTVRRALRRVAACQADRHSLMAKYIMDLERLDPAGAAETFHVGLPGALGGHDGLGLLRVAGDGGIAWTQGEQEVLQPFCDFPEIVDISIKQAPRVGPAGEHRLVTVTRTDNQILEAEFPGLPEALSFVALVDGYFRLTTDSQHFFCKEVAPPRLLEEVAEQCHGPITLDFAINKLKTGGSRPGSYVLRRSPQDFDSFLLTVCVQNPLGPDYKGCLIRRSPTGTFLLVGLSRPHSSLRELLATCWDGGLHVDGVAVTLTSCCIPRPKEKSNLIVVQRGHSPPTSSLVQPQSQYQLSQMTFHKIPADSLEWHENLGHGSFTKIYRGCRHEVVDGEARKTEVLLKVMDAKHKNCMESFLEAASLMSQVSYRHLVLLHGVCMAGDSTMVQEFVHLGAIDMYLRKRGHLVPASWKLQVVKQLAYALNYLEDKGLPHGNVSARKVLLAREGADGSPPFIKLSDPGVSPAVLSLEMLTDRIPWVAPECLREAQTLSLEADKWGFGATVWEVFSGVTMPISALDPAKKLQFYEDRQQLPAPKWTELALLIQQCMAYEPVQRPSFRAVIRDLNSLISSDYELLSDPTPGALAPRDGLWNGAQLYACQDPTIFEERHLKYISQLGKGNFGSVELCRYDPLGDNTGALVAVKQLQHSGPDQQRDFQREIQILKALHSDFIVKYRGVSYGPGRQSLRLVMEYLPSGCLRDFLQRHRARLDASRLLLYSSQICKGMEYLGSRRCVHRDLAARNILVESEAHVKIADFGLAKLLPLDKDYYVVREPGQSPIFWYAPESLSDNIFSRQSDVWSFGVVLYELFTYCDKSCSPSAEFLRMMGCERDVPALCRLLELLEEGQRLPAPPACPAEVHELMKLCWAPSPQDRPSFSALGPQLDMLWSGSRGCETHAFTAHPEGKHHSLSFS
Put plainly: ADP-Glo JAK3 kinase assay. The note with it: read-out: IC50, In vitro enzyme JAK3. The class given is biochemical. Here is the method:
10 mM of Compound 1 was diluted in DMSO to prepare samples at four concentrations (50,000 nM, 5,000 nM, 500 nM and 50 nM). 10 mM of ATP was diluted at 1/40 in 1× kinase buffer to make a preparation. 1 mg/mL of Poly (Glu4, Tyr1) peptide was used as a stock solution. 100 ng/μL of JAK3 enzyme was diluted at 1/20 in 1× kinase buffer to make a preparation. 1 μL of ATP, 1 μL of Poly (Glu4, Tyr1) peptide, and 1 μL of Compound 1 prepared as above were mixed, after which 2 μL of JAK3 enzyme was finally added and reacted at 30° C. for 40 minutes. At this time, a tube without JAK3 enzyme was prepared as a blank and a tube without Compound 1 was prepared as a positive control group together (a final concentration of samples was 10,000 nM, 1,000 nM, 100 nM, and 10 nM).
Then, 5 μL of ADP-glo was added to each tube and reacted at 30° C. for 40 minutes, after which 10 μL of kinase detection reagent was added thereto and reacted at room temperature for 15 minutes. After 18 μL of the reactant was transferred to a 384 well plate, luminescence was measured using a plate reader.
On the technique in general: ADP-Glo first removes unused ATP, then detects ADP through luciferase.

Data set [2] has as its system JAK1. Put plainly: Human whole blood assay, JAK1. The class given is cell-based. The note with it: cytokine-induced STAT phosphorylation. The method, then:
(§1) A stock solution of Compound 1 obtained according to Preparation Example 1 was diluted with distilled water and then serially diluted at ⅕ with 4% DMSO. 5 μL of test material was added to 100 μL of whole blood collected using a 1.7 mL eppendorf tube, mixed, and incubated at 37° C. for 45 minutes.
(§2) IL-6 (10 μg/ml) was diluted with 0.1% BSA/DW to reach 1 μg/mL each. 5 μL of IL-6 was added (at a final concentration of 50 ng/mL) and incubated at 37° C. for 15 minutes. At this time, 5 μL of DPBS was added as a non-stimulated control group. Lyse/fix buffer 5× was diluted 1× in distilled water and used. […]
(§3) For double staining of CD4 and pSTATI, anti-[…] and anti-pSTATI were mixed in a staining buffer and added to each of the samples. […] On the next day, the results were analyzed using FACSCanto II. […]
(§4) The numerical values analyzed by FlowJo were calculated to obtain IC50 values using GraphPad Prism 5 software (product name).
(§5) No treatment response (NTR) was set as a reference, and the degree of the phosphorylation of STAT induced by cytokines was converted into a relative ratio (% control group). A dose-response plot was obtained for each concentration-dependent activity of each test material using GraphPad Prism (version 5.0) and ICso values were calculated.

For data set [3], the system named is JAK2, Tyk2. Put plainly: Human whole blood assay, JAK2, Tyk2. The class given is cell-based. Conditions: cytokine-induced STAT phosphorylation. Here is the method:
as §1, §2, §3, §4, §5

Data set [4] can be described thus: Physical stability evaluation under stress conditions. The class given is physicochemical. The method, then: In order to evaluate physical stability, samples were packaged in the form of ((LPDE+N2)+silica gel 1 g+LDPE)+Al-Bag, and stored under stress conditions (60° C.±2° C./80% RH±5%) for 2/4 weeks before evaluation.
In table 2, initial is a result measured after preparation of salts, and S2W and S4W are results measured after two and four weeks while being exposed to stress conditions, respectively.

For orientation: IC50 means the concentration that inhibits the measured activity by half.

SMILES strings stand for the structures.

Turning to `C[C@@H]1CN(C(=O)CC#N)CC=C1c1cc(NC(=O)C2CC2)nc2[nH]ccc12` [Compound 1, (S)—N-(4-(1-(2-cyanoacetyl)-3-methyl-1,2,3,6-tetrahydropyridin-4-yl)-1H-pyrrolo[2,3-b]pyridin-6-yl)cyclopropanecarboxamide], the IC50 came to 315 nM in data set [1], 70 nM in data set [2] and 3640 nM in data set [3].

Regarding `C[C@@H]1CN(C(=O)CC#N)CC=C1c1cc(NC(=O)C2CC2)nc2[nH]ccc12` [Example 3, (S)—N-(4-(1-(2-cyanoacetyl)-3-methyl-1,2,3,6-tetrahydropyridin-4-yl)-1H-pyrrolo[2,3-b]pyridin-6-yl)cyclopropanecarboxamide], in data set [4] (Initial), the C.I quantitative stood at 24.0%; the “Content (anhydride, as anhydride)” value turned out to be 98.9%; the Moisture is 0.2%; the “Purity: Individual related material” value came out at 0.08%. Besides, the “Purity: Total related material” value in data set [4] (Initial) worked out at 0.41%. Moreover, in data set [4] (S2W: 2 weeks at 60° C./80% RH), the C.I quantitative was 24.1%; the “Content (anhydride, as anhydride)” value came to 99.9%; the Moisture was determined as 0.2%; the “Purity: Individual related material” value was determined as 0.08%. The “Purity: Total related material” value in data set [4] (S2W: 2 weeks at 60° C./80% RH) came to 0.43%. In data set [4] (S4W: 4 weeks at 60° C./80% RH), the C.I quantitative was 23.8%; the “Content (anhydride, as anhydride)” value is given as 99.9%; the Moisture was found to be 0.2%; the “Purity: Individual related material” value came out at 0.11%. For the same compound, the “Purity: Total related material” value in data set [4] (S4W: 4 weeks at 60° C./80% RH) turned out to be 0.53%.
